Test results: US11713305B2, “Zinc sensors for in vivo imaging of beta-cell function by MRI” (The Board of Regents of the University of Texas System, priority 2017, dated 2023)
Where two headings read alike, the source gives them in different places.

What was measured:
[1] = comparison Dy complexes; cited from earlier work
[2] = cited from earlier work
[3] = system: mouse pancreas; assay: In vivo MR imaging of glucose stimulated insulin secretion (GSIS) in the mouse pancreas; set-up: species or system C57B1/6 mice; settings: over the first 10-15 min after injection; 0.07 mmol/kg i.v., glucose IP
Text: Both phases of insulin secretion are considered essential, but the early RRP phase that is thought to be the first signal reduced during the development of type 2 diabetes (Komatsu et al., 2013; Hosker et al., 1989). In principle, both phases of insulin secretion should be detectable by MRI if enough sensor is present in the extracellular space during the time-course of these events. Biphasic GSIS was not detected by MRI in previous experiments using the first generation Zn^2+ sensors with a high affinity for Zn^2+ but we hypothesized that GSIS may be more easily detected using these second-generation agents having a much lower affinity for Zn^2+. To test this, dynamic MRI scans were collected after administering either GdL1, GdL2, GdL3 or GdL4 to C57B1/6 mice via a tail vein (0.07 mmol/kg). Nearly simultaneously with agent injection, a bolus (50 μL) of 20% w/v glucose was administered IP to stimulate secretion of insulin.
All animal experiments were performed in accordance with guidelines set by the UT Southwestern Institutional Animal Care and Use Committee (IACUC). Male C57b1/6 mice were fasted for at least 12 hours before imaging experiments. The animals were anaesthetized with isofluorane and catheterized via the tail vein. Once the animals were secured inside a 38 mm volume coil, the pancreas was positioned in the center of the 9.4 T Varian MRI scanner. Two 3D T1-weighted gradient echo pre-injection scans were obtained (TE/TR=1.69/3.34 ms, NEX8, Matrix=128×128 ×128). 70 μl of 20 mM contrast agent were injected i.v. and 50 μl of 20% w/v D-glucose were injected intraperitoneally and consecutive 3D T1-weighted scans were obtained sequentially to monitor signal enhancement in the pancreas. Identification of the pancreas was accomplished by locating the tissues surrounded by the spleen, stomach, and kidneys. A total of 3 animals were scanned per group and images were quantified and analyzed using ImageJ (National Institutes of Health, Bethesda, Md.). The signal intensities from ROIs of the tip of the pancreas were measured before, at every ˜3-4 minutes post D-glucose injection over 30 minutes total. The values were normalized to the signal intensity obtained from a water phantom placed on the mouse abdomen. Contrast enhancement was calculated using the formula
[formula] Statistical analysis was performed by comparing the mean values using a two-tailed t-test. Statistical difference was evaluated using t-scores and p-values at a 95 and 99% confidence level.

[4] = Kinetic inertness (transmetalation by Zn(II) in phosphate buffer); type: physicochemical; settings: four equivalents of Zn^2+ in phosphate buffer (pH=7), 310 K
Text: Shortly after the first confirmed clinical cases of nephrogenic systemic fibrosis (NSF), increased efforts have been made to design agents with high thermodynamic stability and kinetic inertness (Kallen et al., 2008; Reilly, 2008; Rofsky et al., 2008; Wiginton et al., 2008; Abujuden et al., 2009). The sensors shown here are very stable macrocyclic DO3A-monoamide derivatives with reported log KML>20. However, given that the agents reported here also have a high affinity for Zn^2+ ions, and Zn^2+ has been implicated as the major competing ion for transmetalation of Gd^3+ agents derived from linear polyamine ligands, the kinetic rate of Gd^3+ release is arguably the most critical factor in determining in vivo toxicity (Laurent et al., 2010). Using a previously published method (Laurent et al., 2010) consisting of incubating each agent with four equivalents of Zn^2+ in phosphate buffer (pH=7), we compared the kinetic stability of the agents reported here with the FDA-approved agent Magnevist® (GdDTPA, cf. FIG. 7).
Kinetic inertness was determined according to published procedures with minor modifications (Laurent et al., 2010; Silverio et al., 2009). Stock solutions of phosphate buffer (67 mM, pH=7.4), Gd(III) chelates (10 mM) and ZnCl2 (231 mM) were prepared first. Calculated volumes of stock solutions or water were pipetted into small glass vials to obtain a test solution of 300 μL with 30 mM phosphate, 1.5 mM Gd(III) chelate, and 6.0 mM Zn(II). Samples were measured 15 minutes after the sample temperature stabilized at 310 K. During the entire experiment, the samples inside the NMR tubes were kept in an incubator at 310 K. The T1 of the solutions was determined at 310 K and 0.47 T (20 MHz) at various time points within 7 days. As a reference, GdDTPA was analyzed under the same conditions. The R1^P relaxation rate is obtained by subtracting the diamagnetic contribution of the water relaxation (0.28 s-1) from the observed relaxation rate R1=(1/T1).

[5] = target: T1, HSA (Homo sapiens, UniProt P02768); settings: used in fitting; read-out: KD for dansylglycine (HSA); cited from earlier work
T1 construct: purchased Sigma-Aldrich

[6] = Measured at 25° C., Powell et al., 1994, 1996

T1 sequence (P02768 25-609): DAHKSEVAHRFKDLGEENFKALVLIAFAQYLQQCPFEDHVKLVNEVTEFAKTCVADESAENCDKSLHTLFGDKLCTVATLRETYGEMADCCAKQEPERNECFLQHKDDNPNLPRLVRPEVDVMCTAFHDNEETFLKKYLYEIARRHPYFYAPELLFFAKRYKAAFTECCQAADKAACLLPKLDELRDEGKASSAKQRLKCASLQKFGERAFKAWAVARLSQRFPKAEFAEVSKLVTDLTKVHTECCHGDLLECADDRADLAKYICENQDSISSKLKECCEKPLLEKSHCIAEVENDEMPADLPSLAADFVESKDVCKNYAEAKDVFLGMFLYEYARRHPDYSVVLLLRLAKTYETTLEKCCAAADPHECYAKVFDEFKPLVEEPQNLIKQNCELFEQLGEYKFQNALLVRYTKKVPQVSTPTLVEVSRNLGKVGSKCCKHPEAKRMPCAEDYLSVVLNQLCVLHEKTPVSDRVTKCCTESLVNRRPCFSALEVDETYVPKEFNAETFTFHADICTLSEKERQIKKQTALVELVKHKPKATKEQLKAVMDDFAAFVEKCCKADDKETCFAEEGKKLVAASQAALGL

| Structure (SMILES) | 1/T2m^298 [1] | A1 [1] | A2 [1] | ER [1] | kex^298 [1] | ΔH^‡ [1] | further results |
| --- | --- | --- | --- | --- | --- | --- | --- |
| O=C([O-])CNC(=O)CN1CCN(CC(=O)NCC(=O)[O-])CCN(CC(=O)NCC(=O)[O-])CCN(CC(=O)NCC(=O)[O-])CC1.[Dy+3] [Dy DOTA-(gly)4] | 1000 10^4 s^−1 | −50 10^6rad s^−1K T^−1 | 0 10^9rad s^−1K^2 T^−1 | -12 kcal/mol | 0.09 10^6 s^−1 | 12.7 kcal/mol | – |
| O=C([O-])CN1CCN(CC(=O)[O-])CCN(CC(=O)[O-])CCN(CC(=O)[O-])CC1.[Dy+3] [DyDOTA] | 20 10^4 s^−1 | −50 10^6rad s^−1K T^−1 | 0 10^9rad s^−1K^2 T^−1 | -21.5 kcal/mol | 70 10^6 s^−1 | 21.5 kcal/mol | – |
| O=C([O-])CN1CCN(CC(=O)[O-])CCN(CC(=O)[O-])CCN(CC(=O)[O-])CC1.[Gd+3] [GdDOTA] | – | – | – | – | – | – | hyperfine coupling constant (AO/ℏ) [2, 6]: −3.7 ×10^6 rad/s; water exchange rate kex [2, 6]: 4.1e+06 s⁻¹; ER ([2]; reference complexes): 3.85 kcal/mol; EV ([2]; reference complexes): 0.239 kcal/mol; ΔH‡ ([2]; reference complexes): 11.9 kcal/mol; Δ^2 ([2]; reference complexes): 0.16 10^20 s^−2; τRO^298 ([2]; reference complexes): 77 ps; τV^298 ([2]; reference complexes): 11 ps |
| CC(O)CN1CCN(CC(=O)[O-])CCN(CC(=O)[O-])CCN(CC(=O)[O-])CC1.[Gd+3] (centres unmarked) [GdHPDO3A, reference compound] | – | – | – | – | – | – | T1-weighted MR image enhancement in pancreatic tissues and kidneys [3]: significant image enhancements |
| CNC[C@H](O)[C@@H](O)[C@H](O)[C@H](O)CO.CNC[C@H](O)[C@@H](O)[C@H](O)[C@H](O)CO.O=C([O-])CN(CCN(CC(=O)[O-])CC(=O)O)CCN(CC(=O)[O-])CC(=O)O.[Gd+3] [Magnevist, reference compound] | – | – | – | – | – | – | kinetic stability against transmetalation [4]: some transmetalation |
| CN(C)c1cccc2c(S(=O)(=O)NCC(=O)O)cccc12 [dansylglycine] | – | – | – | – | – | – | Kd [5]: 2500 nM |
